# Test results taken from BindingDB's records for doi:10.3109/14756366.2010.510471 (Suven Life Sciences, 2011).
# pIC50, pKi: −log10 of the molar value.
# How the values were obtained:
# [1] = target: 5-hydroxytryptamine receptor 6 (Homo sapiens, UniProt P50406); assay: Radioligand Binding Assay; details: pH 7.4; 37 °C
# Procedure: Briefly, receptor source and radioligand used were human recombinant expressed in HEK-293 cells and [3H] LSD (60–80 Ci/mmol), respectively. The final ligand concentration was 1.5 nM and non-specific determinant was methiothepin mesylate (0.1 μM). The reference compound and positive control was methiothepin mesylate. Reactions were carried out in 50 mM TRISHCl (pH 7.4) containing 10 mM MgCl2, 0.5 mM EDTA for 60 min at 37 °C. The reaction was terminated by rapid vacuum filtration onto glass fibre filters.
# Cytochrome P450 2D6 = Cytochrome P450 2D6 (Homo sapiens, UniProt P10635); assay: Isoform-Selective Assay
# Sequence of Cytochrome P450 2D6 (P10635 whole entry, canonical isoform): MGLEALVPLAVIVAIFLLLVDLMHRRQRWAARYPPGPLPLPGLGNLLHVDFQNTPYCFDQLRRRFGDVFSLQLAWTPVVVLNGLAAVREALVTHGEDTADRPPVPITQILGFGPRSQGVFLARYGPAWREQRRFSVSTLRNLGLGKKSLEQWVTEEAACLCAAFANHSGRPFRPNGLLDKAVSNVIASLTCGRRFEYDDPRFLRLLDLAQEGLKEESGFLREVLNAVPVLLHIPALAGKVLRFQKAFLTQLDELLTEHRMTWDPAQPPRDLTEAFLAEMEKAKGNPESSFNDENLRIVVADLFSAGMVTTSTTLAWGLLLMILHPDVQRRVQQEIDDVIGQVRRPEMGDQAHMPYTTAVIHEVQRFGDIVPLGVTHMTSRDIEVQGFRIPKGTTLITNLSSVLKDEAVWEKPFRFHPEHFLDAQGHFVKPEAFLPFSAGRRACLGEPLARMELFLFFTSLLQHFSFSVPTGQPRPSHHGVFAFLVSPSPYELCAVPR
# Procedure: (§1) The cytochrome P450 inhibitory potential was determined using isoform-selective assays and heterologously expressed human CYP2D6 and CYP3A4.
# Cytochrome P450 3A4 = Cytochrome P450 3A4 (Homo sapiens, UniProt P08684); assay: Isoform-Selective Assay
# Sequence of Cytochrome P450 3A4 (P08684 whole entry, canonical isoform): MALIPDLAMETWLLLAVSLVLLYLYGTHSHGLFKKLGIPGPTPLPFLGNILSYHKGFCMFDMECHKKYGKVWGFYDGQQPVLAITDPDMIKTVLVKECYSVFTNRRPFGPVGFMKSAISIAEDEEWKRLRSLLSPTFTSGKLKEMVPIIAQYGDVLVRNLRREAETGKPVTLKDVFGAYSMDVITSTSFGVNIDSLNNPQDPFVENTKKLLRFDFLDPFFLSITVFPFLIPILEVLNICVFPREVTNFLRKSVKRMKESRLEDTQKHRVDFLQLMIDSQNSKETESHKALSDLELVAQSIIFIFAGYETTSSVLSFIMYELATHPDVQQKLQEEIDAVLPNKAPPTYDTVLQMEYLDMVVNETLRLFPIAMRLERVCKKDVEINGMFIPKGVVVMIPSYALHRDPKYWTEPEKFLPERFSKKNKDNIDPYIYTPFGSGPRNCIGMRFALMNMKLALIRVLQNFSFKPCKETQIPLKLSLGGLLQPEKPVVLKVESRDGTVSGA
# Procedure: as §1
# Sequence of 5-hydroxytryptamine receptor 6 (P50406 whole entry): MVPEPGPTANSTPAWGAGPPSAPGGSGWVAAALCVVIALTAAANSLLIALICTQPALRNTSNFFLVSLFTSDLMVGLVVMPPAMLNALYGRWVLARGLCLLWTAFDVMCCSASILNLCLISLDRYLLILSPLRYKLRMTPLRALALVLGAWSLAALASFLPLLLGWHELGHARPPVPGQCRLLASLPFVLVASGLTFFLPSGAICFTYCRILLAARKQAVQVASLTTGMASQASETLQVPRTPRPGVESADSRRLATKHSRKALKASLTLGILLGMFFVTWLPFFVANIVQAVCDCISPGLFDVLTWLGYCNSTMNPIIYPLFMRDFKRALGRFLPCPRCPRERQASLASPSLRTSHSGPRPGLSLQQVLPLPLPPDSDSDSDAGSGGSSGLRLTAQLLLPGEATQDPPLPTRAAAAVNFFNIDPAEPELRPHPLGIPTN
SMILES,pKi [1],pIC50 (Cytochrome P450 2D6),pIC50 (Cytochrome P450 3A4)
"CN(C)CCOc1c2n(c3ccc(Cl)cc13)S(=O)(=O)c1ccccc1-2 [2-Chloro-10-(2-N,N-Dimethylaminoethoxy)-5-Thia-4-b-azaindeno[2,1-a]indene-5,5-Dioxide (8c)]",6.33,–,–
"CN(C)CCOc1c2n(c3ccccc13)S(=O)(=O)c1ccccc1-2 [10-(2-N,N-Dimethylaminoethoxy)-5-Thia-4-b-azaindeno[2,1-a]indene-5,5-Dioxide (8a)]",–,5.12,< 4.35
"COc1ccc2c(c1)c(OCCN(C)C)c1n2S(=O)(=O)c2ccccc2-1 [2-Methoxy-10-(2-N,N-Dimethylaminoethoxy)-5-Thia-4b-azaindeno[2,1-a]indene-5,5-Dioxide (8d)]",6.90,–,–
"CN(C)CCOc1c2n(c3cccc(F)c13)S(=O)(=O)c1ccccc1-2 [1-Fluoro-10-(2-N,N-Dimethylaminoethoxy)-5-Thia-4-b-azaindeno [2,1-a]indene-5,5-Dioxide (8o)]",< 6.30,–,–
"CN(C)CCOc1c2n(c3cc(Cl)ccc13)S(=O)(=O)c1ccccc1-2 [3-Chloro-10-(2-N,N-Dimethylaminoethoxy)-5-Thia-4-b-azaindeno (8b)]",–,5.30,4.43
